According to publication PMC10610545, “Preclinical Evaluation of an Imidazole-Linked Heterocycle for Alzheimer’s Disease” (Pharmaceutics, 2023):

Tests used:
[1] = biological target: imidazoline I2 receptors (I2-IR); assay: Competition binding against [3H]2-BFI, membranes from post-mortem human frontal cortex; conditions: for Ki: corresponds to pKiH, read-out: Ki of the high-affinity I2 site; for [3H]-2-BFI I2 pKi (One Site): monophasic fit; for [3H]-2-BFI I2 pKi (Two Sites), high affinity (pKiH) / [3H]-2-BFI I2 pKi (Two Sites), low affinity (pKiL): two-site model; for [3H]-2-BFI I2 pKi (Two Sites), high affinity (pKiH): high-affinity site; for [3H]-2-BFI I2 pKi (Two Sites), low affinity (pKiL): low-affinity site
Text: The inhibition constant (Ki) for each compound was obtained and is expressed as the corresponding pKi. The selectivity for these two receptors was expressed by the I2/α2 index, calculated as the antilogarithm of the […] between pKi values for I2-IR and pKi values for α2-AR.
Preparation of cellular membranes.
Human brain samples were obtained at autopsy in the Basque Institute of Legal Medicine, Bilbao, Spain. Samples from the prefrontal cortex (Brodmann’s area 9) were dissected at the time of autopsy and immediately stored at -70 °C until assay. The study was developed in compliance with policies of research and ethical review boards for postmortem brain studies.
To obtain cellular membranes (P2 fraction) the different samples were homogenized using an ultraturrax in 10 volumes of homogenization buffer (0.25 M sucrose, 5 mM Tris–HCl, pH 7.4).
The crude homogenate was centrifuged for 5 min at 1000 g (4 °C) and the supernatant was centrifuged again for 10 min at 40,000 g (4 °C). The resultant pellet was washed twice in 5 volumes of homogenization buffer and recentrifuged in similar conditions. Protein content was measured according to the method of Bradford using BSA as standard.
Competition Binding Assays.
The pharmacological activity of the compounds was evaluated through competition binding studies against the I2-IR selective radioligand [3H]2-BFI or the α2-adrenergic receptor selective radioligand [3H]RX821002. Specific binding was measured in 0.25 mL aliquots (50 mM Tris-HCl, pH 7.5) containing 100 µg of membranes, which were incubated in 96-well plates either with […]
Incubations were terminated by separating free ligand from bound ligand by rapid filtration […]
counted for radioactivity by liquid scintillation spectrometry using a MicroBeta TriLux counter (PerkinElmer). Specific binding was determined and plotted as a function of the compound concentration. Nonspecific binding was determined in the presence of idazoxan (10–5 M), a compound with well stablished affinity for I2-IR and α2-adrenergic receptors, in [3H]2-BFI and [3H]RX821002 assays. To obtain the inhibition constant (Ki) analyses of competition experiments were performed by nonlinear regression using the GraphPad Prism program. Ki values were normalized to pKi values. I2-IR/α2 selectivity index was calculated as the antilogarithm of the difference between pKi values for I2-IR and pKi values for α2-ARs.

[2] = PAMPA-BBB permeation assay; format: in vitro ADME, porcine; conditions: pig, PBS/EtOH (70:30), mean ± SD, read-out: Permeability Pe
Experimental: In vitro Blood-Brain Barrier Permeation Assay
To evaluate the brain penetration of the different compounds, a parallel artificial membrane permeation assay for blood-brain barrier was used, following the method described by Di et al.1 The in vitro permeability (Pe) of fourteen commercial drugs (see Table S1) through lipid extract of porcine brain membrane together with the test compounds were determined. Commercial drugs and assayed compounds were tested using a mixture of PBS:ETOH (70:30). Assay validation was made by comparing the experimental permeability with the reported values of the commercial drugs by bibliography and lineal correlation between experimental and reported permeability of the fourteen commercial drugs using the parallel artificial membrane permeation […]
From this equation and taking into account the limits established by Di et al. for BBB permeation, we established the ranges of permeability […]
predictive penetration in the CNS used as references.
1 Di, L.; Kerns, E. H.; Fan, K.; McConnell, O. J.; and Carter, G. T. High throughput artificial membrane permeability assay for blood-brain barrier.

[3] = system: HT-22 mouse hippocampal neuronal cell line; assay: Cytotoxicity of compounds alone, MTT assay, HT-22; format: cell-based; conditions: HT-22, 24 h, escalating concentrations
Experimental: In the study of neurotoxicity associated with AD, the HT22 mouse hippocampal neuronal cell line has been recognized as an effective cell model. HT22 cells were purchased from Merck-Sigma-Aldrich (SCC12, Madrid, Spain) and cultured in DMEM-F12 (Gibco, Fisher Scientific, Madrid, Spain) supplemented with foetal bovine serum (FBS, 10%) and 1% penicillin/streptomycin under standard conditions (37 °C, 5% CO2). The human dopaminergic cell line SH-SY5Y, in turn, has been widely used as an in vitro model to study the pathogenesis of PD associated with dopaminergic degeneration. Cells, acquired from the American Type Culture Collection (ATCC, Rockville, MD, USA, Ref.CRL-2266), were grown in RPMI medium (Gibco) supplemented with glutamine (2 mM), 10% FBS, and 1% penicillin/streptomycin under standard conditions. Semiconfluent cells (90%) were seeded on 96-well plates at 3 × 10^4 per well and incubated for 24 h before treatment.
Neuronal cultures, HT-22 and SH-SY5Y, seeded on 96-well plates were treated with LSL33, LSL34, and LSL60101 for 24 h, and viability was assessed using the MTT assay. […] Then, cultures were treated for 1h with LSL33 at 2 μM and LSL34 and LSL60101 at 1 μM. This dose was chosen based on previous studies. Subsequently, HT-22 cultures were exposed to glutamate (10 mM, Merck-Sigma), while SH-SY5Y cultures received 6-hydroxydopamine (6-OHDA, 35 μM, Merck-Sigma). The cells were then incubated for a minimum of 16 h. Finally, the cellular viability and nitrite production of the cultures were assessed.
The assessment of cell viability was conducted using the 3-(4,5-dimethylthiazol-2-yl)-5-(3-carboxymethoxyphenyl)-2-(4-sulfophenyl)-2H-tetrazolium (MTT) assay, following the instructions provided by the manufacturer (Roche Diagnostic, Darmstadt, Germany). […] The absorbance of the solution was measured at 595–650 nm using a spectrophotometer. The experiments were performed at least three times, and the results were expressed as a percentage of the control. […]

Row | SMILES | Ki [1] [nM] | [3H]-2-BFI I2 pKi (One Site) [1] | [3H]-2-BFI I2 pKi (Two Sites), high affinity (pKiH) [1] | [3H]-2-BFI I2 pKi (Two Sites), low affinity (pKiL) [1] | Papp [2] [×10⁻⁶ cm/s] | cytotoxicity (MTT viability) [3] | Selectivity I2/α2 ([1]; antilog (pKi I2-IR − pKi α2-AR))
1 | Cl.c1ccc2sc(-c3ncc[nH]3)cc2c1 [LSL33, 2-(Benzo[b]thiophene-2-yl)-1H-imidazole hydrochloride] | 0.079 | 5.95 ± 0.24 | 10.1 ± 0.57 | 5.68 ± 0.25 | 8.1 ± 0.4 | None of the compounds tested were cytotoxic | –
2 | Cl.c1ccc2oc(-n3ccnc3)cc2c1 [LSL34, 1-(Benzofuran-2-yl)-1H-imidazole hydrochloride] | – | 5.58 ± 0.31 | 9.23 ± 0.36 | – | 14.1 ± 0.5 | None of the compounds tested were cytotoxic | –
3 | c1ccc2oc(-c3ncc[nH]3)cc2c1 [LSL60101, reference compound] | 6.7 | 6.67 ± 0.09 | 8.17 ± 0.19 | 6.02 ± 0.10 | 13.6 ± 0.4 | None of the compounds tested were cytotoxic | 3090
